From patent US20210251228A1, “METHODS FOR REPELLING DROSOPHILA SPECIES USING 2-PENTYLFURAN” (The United States of America, as represented by the …, priority 2020, published 2021) come the findings set out here.

For experiment [1], the system named is Drosophila suzukii. Put plainly: No-choice oviposition cage experiment: release rate of 2-pentylfuran on raspberry. In kind it is in vivo. Conditions: 2 h. The procedure: Effects of Release Rate of 2-pentylfuran on SWD Oviposition on Raspberry: No Choice Test. Based on the significant effect of 2-pentylfuran using an unknown release rate in the field, to better understand concentration response of SWD to 2-pentylfuran, we evaluated the response of adult SWD to different ranges of 2-pentylfuran release rates in 2 h no choice oviposition cage experiments conducted in the greenhouse (25° C.; natural light; 40-60% r.h.). Cages (60 cm W×60 cm H×180 cm L, BioQuip, Rancho Dominguez, Calif.) were shrouded with a piece of shade cloth (120 cm W×120 cm H×300 cm L). […] Actual release rates from each dispenser used were measured for each assay by recording weight of the dispensers prior and post assay. […] Upon completion of the assay, total number of SWD eggs oviposited into the raspberries was determined with the aid of a dissecting microscope.
(§1) Statistical Analyses: Trap catch data from multiple-choice assay and two-choice assay were analyzed in a randomized block design with block as a random factor and different EAD-active compounds as a fixed factor using Poisson distribution with log link function and maximum likelihood estimation (Proc Glimmix, SAS Institute, SAS/STAT 9.2 User's Guide, Second Edition, 2009, SAS Institute Inc., Cary, N.C.). […]

The subject of experiment [2] is Drosophila suzukii. Briefly: Field test 1: unknown release rate of 2-pentylfuran, SWD oviposition on field raspberries. Format: in vivo. The settings on record: 0.5 ml 50% 2-pentylfuran in mineral oil in vial, 3 days, N=16. The procedure:
Field Test 1: Effect of Unknown Release Rate of 2-Pentylfuran on SWD Oviposition. The objective of this field test was to confirm the repellent activity of 2-pentylfuran under field conditions. This experiment was conducted using a mixed variety planting of fall-bearing raspberries (primocane raspberries) at Cornell AgriTech in Geneva, N.Y. where we randomly assigned 32 fruiting clusters to one of two treatments: 1.5 ml centrifuge vial with 3 mm hole in lid and containing 0.5 ml 50% 2-pentylfuran in 1:1 ratio with mineral oil or vial with mineral oil only (similar to Wallingford et al. 2016a). After three days we collected ripe raspberries from each cluster and monitored SWD emergence over the 2 weeks in the laboratory (25 C, 55% RH, 16:8 L:D).
as §1

Take `CCCCCc1ccco1` [2-pentylfuran]: in the experiment on Drosophila suzukii [1] (greenhouse cages, raspberries, N=12), the “release rate at which SWD oviposition began to decline relative to control” value is on record as “around 2.5 mg/h”. Besides, the “reduction in number of eggs laid compared to control” value in the experiment on Drosophila suzukii [1] (high release rate (5 and 10 mg/h)) was determined as 58%. For the same molecule, in the experiment with Drosophila suzukii [2], the “reduction of number of eggs per raspberry fruit” value is on record as 30%.
